Literature values as cited in US20090214682A1, “Composition and methods for weight loss in a subject” (priority 2008, published 2009).
Where two headings read alike, the source gives them in different places.

Tests used:
[1] = rats
[2] = not given; remark: listed apart in the source
[3] = obese women
[4] = rats, high fat diet, 12 weeks
[5] = not given; remark: listed apart in the source
[6] = vs placebo
[7] = 8 weeks, overweight subjects, vs placebo
[8] = not given; remark: listed apart in the source

[Cr] [Chromium]
body fat (combined with exercise): reduce body fat
lean mass (combined with exercise): increase lean mass
HDL cholesterol (human, in vivo): increase HDL

O=C(O)CC(O)(C(=O)O)C(O)C(=O)O (stereo not shown) [HCA, 1,2-dihydroxypropane-1,2,3-tricarboxylic acid]
appetite [1]: repress appetite
fatty acid synthesis [1]: inhibit fatty acid synthesis
caloric intake ([2]; clinical studies): reduction in caloric intake
blood cholesterol profile ([2]; daily, moderate exercise, 8 weeks): improved blood cholesterol profile
weight loss ([2]; daily, moderate exercise, 8 weeks, vs placebo): increased weight loss
serotonin levels ([2]; human, in vivo): significantly increased
fat oxidation during exercise ([2]; untrained men and women): increasing fat oxidation

Cn1c(=O)c2c(ncn2C)n(C)c1=O [caffeine, 3,7-dihydro-1,3,7-trimethyl-1H-purine-2,6-dione]
weight loss [3]: Significant weight loss
body fat [4]: generally reduced
abdominal adipose tissue weight ([4]; vs control group): significant decrease
serum triglyceride levels ([4]; vs control group): significant decrease

CCCCCCCCCCCC(C[C@@H]1OC(=O)[C@H]1CCCCCC)OC(=O)[C@H](CC(C)C)NC=O (stereo partly drawn) [orlistat, N-formyl-L-leucine-1-[[(2S,3S)-3-hexyl-4oxo-2-oxetanyl]methyl]dodecyl ester]
tolerability ([5]; 60 mg vs larger dose): generally better tolerated
efficacy for weight loss relative to prescription dose ([5]; OTC 60 mg vs prescription 120 mg): about 85%
inhibition of absorption of ingested fats ([5]; OTC dose 60 mg): about 25%
average weight loss of initial body weight ([5]; OTC dose 60 mg, over 16 weeks): about 5%
LDL cholesterol levels ([6]; one year treatment): greater improvements then placebo
total serum cholesterol ([6]; one year treatment): greater improvements then placebo
weight loss ([6]; persons with type 2 diabetes): more significant weight loss then the placebo group

Cn1c(=O)c2[nH]cnc2n(C)c1=O [theophylline, 3,7-dihydro-1,3-dimethyl-1H-purine-2,6-dione]
body fat [4]: generally reduced

chromium polynicotinate
body fat [7]: significant loss of body fat
systolic blood pressure ([8]; vs control groups): effective in lowering systolic blood pressure
free radical damage in liver and kidney tissue ([8]; vs controls): less free radical damage
